Patent US20230322761A1, “DEGRADATION OF BRUTON'S TYROSINE KINASE (BTK) BY CONJUGATION OF BTK INHIBITORS WITH E3 LIGASE LIGAND AND METHODS OF USE” (BEIGENE, LTD., priority 2020, published 2023)

Target: T1, BTK (Homo sapiens, UniProt Q06187)
T1 construct: endogenous in cells; host or cells: TMD-8 cells
Assay: BTK degradation in TMD-8 cells, HTRF assay after 6 h treatment
Assay type: cell-based
Conditions: IC50 (DC50) of BTK degradation
How it was run: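 Remaining BTK was quantified by HTRF in lysates of TMD-8 cells after 6 h exposure to an 8-point, 6-fold compound series (500× stocks in DMSO starting at 1 mM; 0.2% DMSO). Lysis 30 min, antibodies overnight at room temperature, ratio read at 665/620 nm; DC50 fitted with a four-parameter logistic equation.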

T1 sequence (Q06187 whole entry): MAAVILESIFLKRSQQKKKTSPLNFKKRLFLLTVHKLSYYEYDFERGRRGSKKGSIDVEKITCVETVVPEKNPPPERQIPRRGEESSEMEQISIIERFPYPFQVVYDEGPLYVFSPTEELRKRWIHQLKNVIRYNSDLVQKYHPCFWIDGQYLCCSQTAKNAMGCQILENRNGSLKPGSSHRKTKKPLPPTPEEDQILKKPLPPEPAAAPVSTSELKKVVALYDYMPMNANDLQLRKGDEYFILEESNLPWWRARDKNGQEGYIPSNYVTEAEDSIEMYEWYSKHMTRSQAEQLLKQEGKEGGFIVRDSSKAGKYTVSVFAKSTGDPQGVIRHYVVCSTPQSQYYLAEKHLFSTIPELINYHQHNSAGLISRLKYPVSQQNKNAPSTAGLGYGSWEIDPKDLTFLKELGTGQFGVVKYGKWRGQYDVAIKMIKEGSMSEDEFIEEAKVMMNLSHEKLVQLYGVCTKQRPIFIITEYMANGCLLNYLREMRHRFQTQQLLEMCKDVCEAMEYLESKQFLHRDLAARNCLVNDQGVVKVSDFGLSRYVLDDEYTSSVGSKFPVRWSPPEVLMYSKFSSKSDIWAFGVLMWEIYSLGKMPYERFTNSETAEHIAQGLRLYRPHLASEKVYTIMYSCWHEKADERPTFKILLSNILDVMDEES

## Cc1cc(-c2n[nH]c3ncc(-c4ccc(CCN5CCC(c6ccc([C@@H]7CCC(=O)NC7=O)cc6)CC5)cc4)cc23)ccc1CNC(=O)c1nc(C(C)(C)C)no1 [Example 88, (S)-3-(tert-butyl)-N-(4-(5-(4-(2-(4-(4-(2,6-dioxopiperidin-3-yl)phenyl)piperidin-1-yl)ethyl)phenyl)-1H-pyrazolo[3,4-b]pyridin-3-yl)-2-methylbenzyl)-1,2,4-oxadiazole-5-carboxamide]
  DC50: 9.41 nM

## Cc1cc(-c2n[nH]c3ncc(-c4ccc(CCN5CCC(c6ccc([C@H]7CCC(=O)NC7=O)cc6)CC5)cc4)cc23)ccc1CNC(=O)c1nc(C(C)(C)C)no1 [Example 89, (R)-3-(tert-butyl)-N-(4-(5-(4-(2-(4-(4-(2,6-dioxopiperidin-3-yl)phenyl)piperidin-1-yl)ethyl)phenyl)-1H-pyrazolo[3,4-b]pyridin-3-yl)-2-methylbenzyl)-1,2,4-oxadiazole-5-carboxamide]
  DC50: 0.635 nM

## Cc1cc(-c2n[nH]c3ncc(-c4ccc(N5CCN(CC6CCN(c7cc(F)ccc7N7CCC(=O)NC7=O)CC6)CC5)cc4)cc23)ccc1[C@@H](C)NC(=O)c1noc(C(C)(C)C)n1 [Example 90, (R)-5-(tert-butyl)-N-(1-(4-(5-(4-(4-((1-(2-(2,4-dioxotetrahydropyrimidin-1(2H)-yl)-5-fluorophenyl)piperidin-4-yl)methyl)piperazin-1-yl)phenyl)-1H-pyrazolo[3,4-b]pyridin-3-yl)-2-methylphenyl)ethyl)-1,2,4-oxadiazole-3-carboxamide]
  DC50: > 2000 nM

## Cc1cc(-c2n[nH]c3ncc(-c4ccc(N5CCN(CCC6CCN(c7ccc([C@H]8CCC(=O)NC8=O)cc7)CC6)CC5)cc4)cc23)ccc1CNC(=O)c1noc(C(C)(C)C)n1 [Example 91, (R)-5-(tert-butyl)-N-(4-(5-(4-(4-(2-(1-(4-(2,6-dioxopiperidin-3-yl)phenyl)piperidin-4-yl)ethyl)piperazin-1-yl)phenyl)-1H-pyrazolo[3,4-b]pyridin-3-yl)-2-methylbenzyl)-1,2,4-oxadiazole-3-carboxamide]
  DC50: 1.97 nM

## Cc1cc(-c2n[nH]c3ncc(-c4ccc(N5CCN(CCC6CCN(c7ccc([C@@H]8CCC(=O)NC8=O)cc7)CC6)CC5)cc4)cc23)ccc1CNC(=O)c1noc(C(C)(C)C)n1 [Example 92, (S)-5-(tert-butyl)-N-(4-(5-(4-(4-(2-(1-(4-(2,6-dioxopiperidin-3-yl)phenyl)piperidin-4-yl)ethyl)piperazin-1-yl)phenyl)-1H-pyrazolo[3,4-b]pyridin-3-yl)-2-methylbenzyl)-1,2,4-oxadiazole-3-carboxamide]
  DC50: 7.24 nM

## Cc1cc(-c2n[nH]c3ncc(-c4ccc(N5CCN(CC6CCN(c7ccc(N8CCC(=O)NC8=O)cc7)CC6)CC5)cc4)cc23)ccc1CNC(=O)c1csc(C(C)(C)C)n1 [Example 93, 2-(tert-butyl)-N-(4-(5-(4-(4-((1-(4-(2,4-dioxotetrahydropyrimidin-1(2H)-yl)phenyl)piperidin-4-yl)methyl)piperazin-1-yl)phenyl)-1H-pyrazolo[3,4-b]pyridin-3-yl)-2-methylbenzyl)thiazole-4-carboxamide]
  DC50: 28.8 nM

## Cc1cc(-c2n[nH]c3ncc(-c4ccc(N5CCN(CC6CCN(c7ccc(N8CCC(=O)NC8=O)cc7)CC6)CC5)cc4)cc23)ccc1CNC(=O)c1cnc(C(C)(C)C)s1 [Example 94, 2-(tert-butyl)-N-(4-(5-(4-(4-((1-(4-(2,4-dioxotetrahydropyrimidin-1(2H)-yl)phenyl)piperidin-4-yl)methyl)piperazin-1-yl)phenyl)-1H-pyrazolo[3,4-b]pyridin-3-yl)-2-methylbenzyl)thiazole-5-carboxamide]
  DC50: 13.1 nM

## Cc1cc(-c2n[nH]c3ncc(-c4cccc(N5CCN(CC6CCN(c7ccc(N8CCC(=O)NC8=O)cc7)CC6)CC5)c4)cc23)ccc1[C@@H](C)NC(=O)c1noc(C(C)(C)C)n1 [Example 95, (R)-5-(tert-butyl)-N-(1-(4-(5-(3-(4-((1-(4-(2,4-dioxotetrahydropyrimidin-1(2H)-yl)phenyl)piperidin-4-yl)methyl)piperazin-1-yl)phenyl)-1H-pyrazolo[3,4-b]pyridin-3-yl)-2-methylphenyl)ethyl)-1,2,4-oxadiazole-3-carboxamide]
  DC50: 71.4 nM
